Ten compounds from patent US20120208809A1, “9H-PYRROLO[2,3-B: 5,4-C'] DIPYRIDINE AZACARBOLINE DERIVATIVES, PREPARATION THEREOF, AND THERAPEUTIC USE THEREOF” (SANOFI, priority 2009, published 2012) can be followed below.

What is called IC50 is the concentration at which inhibition is half-maximal. A word on the EC50: it is the concentration needed to bring the measured effect to its halfway point.

One experiment concerns the target T1, Pim-1 (Homo sapiens, UniProt P11309).
T1 construct: full-length human recombinant His6-labelled Pim-1, Pim-2 or Pim-3 protein; His6; made in house
Put plainly: TR-FRET assay of Pim kinase activity (phosphorylation of Bad Ser112), Pim-1. The conditions noted are these: ATP 40 μM, read-out: IC50 Pim1. The format is biochemical. Summed up: (§1)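 Full-length His6-tagged human Pim-1, -2 or -3 phosphorylate full-length His6-Bad at 40 μM ATP; phospho-Ser112 detected by TR-FRET (Eu anti-phosphoBad, APC anti-His6), 665/615 nm ratio. Compounds run at 10 concentrations in duplicate, typically top 30 μM; IC50 from 4-parameter logistic fit.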
In general terms: In TR-FRET formats the signal depends on donor and acceptor labels being close together.

A further experiment deals with T2, Pim-3 (Homo sapiens, UniProt Q86V86).
T2 construct: full-length human recombinant His6-labelled Pim-1, Pim-2 or Pim-3 protein; His6; made in house
Put plainly: TR-FRET assay of Pim kinase activity (phosphorylation of Bad Ser112), Pim-3. It is filed as biochemical. The conditions noted are these: ATP 40 μM, read-out: IC50 Pim3. A digest of the protocol: as §1

The target in a further experiment is CDK1 (Homo sapiens, UniProt P06493). Put plainly: Biochemical results, IC50 CDK1.
Sequence of CDK1 (P06493 whole entry, species assumed): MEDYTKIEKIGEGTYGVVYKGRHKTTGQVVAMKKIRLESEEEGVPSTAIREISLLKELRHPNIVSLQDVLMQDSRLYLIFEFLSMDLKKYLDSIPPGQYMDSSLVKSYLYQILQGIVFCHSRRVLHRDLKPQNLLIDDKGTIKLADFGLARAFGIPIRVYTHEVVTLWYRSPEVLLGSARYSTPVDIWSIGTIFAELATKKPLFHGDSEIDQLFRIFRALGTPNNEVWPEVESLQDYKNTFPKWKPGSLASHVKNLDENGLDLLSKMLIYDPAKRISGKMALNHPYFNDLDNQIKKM
Sequence of CDK1 (P14635 whole entry partner, species assumed): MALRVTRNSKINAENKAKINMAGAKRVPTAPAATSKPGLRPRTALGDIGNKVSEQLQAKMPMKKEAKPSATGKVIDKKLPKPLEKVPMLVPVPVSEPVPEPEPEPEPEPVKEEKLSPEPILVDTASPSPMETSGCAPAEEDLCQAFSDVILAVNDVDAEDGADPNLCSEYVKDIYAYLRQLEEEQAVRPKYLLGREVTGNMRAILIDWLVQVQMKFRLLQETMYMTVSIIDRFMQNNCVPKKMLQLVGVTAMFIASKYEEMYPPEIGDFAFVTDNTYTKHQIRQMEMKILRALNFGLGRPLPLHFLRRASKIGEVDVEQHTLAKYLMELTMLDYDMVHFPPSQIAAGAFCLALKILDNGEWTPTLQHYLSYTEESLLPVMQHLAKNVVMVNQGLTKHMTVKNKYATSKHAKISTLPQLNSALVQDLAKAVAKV
A further experiment deals with PLK1 (Homo sapiens, UniProt P53350). Put plainly: Biochemical results, IC50 PLK1.
Sequence of PLK1 (P53350 whole entry, species assumed): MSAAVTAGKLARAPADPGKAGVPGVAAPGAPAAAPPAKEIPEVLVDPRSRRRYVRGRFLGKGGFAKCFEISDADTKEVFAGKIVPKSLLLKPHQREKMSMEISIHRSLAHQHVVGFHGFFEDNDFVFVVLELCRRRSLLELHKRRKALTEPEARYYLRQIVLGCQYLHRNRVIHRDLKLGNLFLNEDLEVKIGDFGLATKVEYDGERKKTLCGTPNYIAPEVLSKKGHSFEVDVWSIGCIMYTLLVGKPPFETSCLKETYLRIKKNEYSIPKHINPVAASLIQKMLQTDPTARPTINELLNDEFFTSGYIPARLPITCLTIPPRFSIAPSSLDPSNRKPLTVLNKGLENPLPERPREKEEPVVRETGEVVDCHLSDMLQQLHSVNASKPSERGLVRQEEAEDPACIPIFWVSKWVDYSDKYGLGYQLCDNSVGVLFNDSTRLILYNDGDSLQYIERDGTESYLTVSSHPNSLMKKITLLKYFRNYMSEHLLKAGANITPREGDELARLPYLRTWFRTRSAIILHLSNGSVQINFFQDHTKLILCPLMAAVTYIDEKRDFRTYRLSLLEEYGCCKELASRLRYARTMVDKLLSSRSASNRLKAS
For the next experiment, the system named is EOL-1. Put plainly: Cell viability assay (CellTiter-Blue), EOL-1.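 Note: EOL-1 is an acute myeloid eosinophilic leukaemia line not a lymphoma.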 It is filed as cell-based. Particulars: Homo sapiens, EOL1, read-out: EC50 EOL-1 μM (eosinophilic leukaemia), EOL-1 cells, read-out: EC50 EOL-1 μM (lymphoma). The source says:
(§2) The representative compounds of the invention are also screened as regards their effects on cell proliferation and viability, using a variety of tumoral cell lines of human source, representative of different pathological indications. These cell lines include:
Models of Haematological Cancers: • TF-1 (acute myelogenic leukaemia; AML M6 at the time of diagnosis); • K G-1 (AML; erythroleukaemia evolving into AML); • KG-1a (AML; subclone derived from immature KG-1); • EOL-1 (AML: eosinophilic leukaemia); • PL-21 (AML; M3); • ML-2 (AML; T-NHL evolving into T-ALL evolving into AML M4); • HL-60 (AML, M3); • Kasumi-1 (AML); • GDM-1 (AML); • K-562 (CML—chronic myelogenic leukaemia; blastic crisis); • JURL-MK1 (CML; blastic crisis); • DND-41 (T-ALL—T-cell acute lymphoblastic leukaemia); • Jurkat (T-ALL); NALM-6 (B-ALL B-cell ALL); • CEM (ALL; lymphosarcoma evolving into ALL); • Jeko-1 (B-NHL—B-cell non-Hodgkin lymphoma; lymphoma with coat cells derived from a large-cell variant in leukaemic transformation); • WSU-DLCL2 (B-NHL; diffuse lymphoma with large B cells); • RL (B-NHL; undifferentiated diffuse); • OCl-Ly10 (B-NHL); • DoHH-2 (B-NHL); • RPMI-8226 (MM—multiple myelomas); • JVM-2 (B-CLL—B-cell chronic lymphocytic leukaemia); and • JVM-3 (B-CLL).
(§3) In order to measure the viability, the tumour cells are incubated in 96-well or 384-well format for 48, 72 or 96 hours, preferably 72 hours, with a compound of the invention at dilutions of a factor 3, with, in general, nine doses in total, the highest dose being equal to 10 μM or 30 μM. The cell viability is evaluated by adding CellTiter-Blue® (Promega, Madison, Wis., United States) for 4 hours and endpoint readings are taken using a SpectraMax Genmini EM plate reader (Molecular Devices, Sunnyvale, Calif., United States). The CellTiter-Blue® cell viability assay measures the ability of the cells in culture to reduce resazurin to resorufin, the intensity of the fluorescence signal being directly proportional to the number of live cells. The EC50 represents the concentration of compound that leads to a 50% reduction of the viability/proliferative expansion of the cells.
(Resazurin is reduced to fluorescent resorufin, in cell work by metabolically active cells.)

In the next experiment the target is T3, Pim-2 (Homo sapiens, UniProt Q9P1W9).
T3 construct: full-length human recombinant His6-labelled Pim-1, Pim-2 or Pim-3 protein; His6; made in house
T3 sequence (Q9P1W9 whole entry): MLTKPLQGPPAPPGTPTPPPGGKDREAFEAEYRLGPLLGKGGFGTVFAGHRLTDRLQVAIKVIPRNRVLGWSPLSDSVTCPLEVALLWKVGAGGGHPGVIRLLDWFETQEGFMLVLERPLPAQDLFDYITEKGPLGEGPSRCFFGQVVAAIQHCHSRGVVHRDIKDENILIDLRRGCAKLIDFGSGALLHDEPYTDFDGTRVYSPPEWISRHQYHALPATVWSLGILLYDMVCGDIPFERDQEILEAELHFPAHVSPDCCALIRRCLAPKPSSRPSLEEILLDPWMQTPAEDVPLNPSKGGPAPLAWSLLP
Put plainly: TR-FRET assay of Pim kinase activity (phosphorylation of Bad Ser112), Pim-2. Particulars: ATP 40 μM, read-out: IC50 Pim2. The format is biochemical. A digest of the protocol: as §1

A further experiment relates to phosphoBAD (DND-41). In words: Level of phosphorylation of Bad by ELISA, DND-41 cell line. It is filed as cell-based. The conditions noted are these: Homo sapiens, DND41, DND-41 cells, 3 hours at 37° C. As to the method: The activity of the molecules is evaluated on the JEKO or DND-41 cell line by measuring the level of phosphorylation of Bad and the total Bad content, via the ELISA technique.
The JEKO or DND-41 cells are resuspended at a concentration of 500 000 cells per ml. The cells are then diluted in RPMI-1640 medium containing 20% foetal calf serum. 225 μl of cells are placed in a plate. Serial dilutions of the molecules are then performed (8 points, three-fold dilution, range started at 10 mM). Each dilution point is then diluted to 1/100 in medium. Next, 25 μl of each of the concentrations are added to the cells and then incubated for 3 hours at 37° C.
100 μl of the cells are transferred into a plate treated with poly-D-Lysine. The plate is then incubated for 5-10 minutes at 37° C. and then centrifuged for 5 minutes at 1500 rpm. A volume of 100 μl of 8% fixing solution (solution of formaldehyde in PBS buffer) is added to each of the wells. After covering with a self-adhesive film and a lid, the plate is incubated for 20 minutes at room temperature and then stored at 4° C. overnight.
Next, the liquid is removed and two successive washes are performed with washing buffer. 100 μl of quenching buffer are added, followed by incubating for 15 minutes at room temperature. After washing, 100 μl of […] at room temperature. After washing, 50 μl of primary antibody diluted to 1/250 for pBAD (Cell Signaling Cat#5284) and to 1/500 for Bad (MBL Cat#591) are added to each of the plates. Each plate is incubated for 2 hours at room temperature. After two washes, 50 μl of secondary antibody (diluted to 1/16) are added to the pBAD plate (tebu-bio ref; FE-021) and 50 μl of the HRP-conjugated IgG secondary antibody (Santa Cruz Cat #SC-2004; diluted to 1/1000) are added to the Bad plate. Incubation for 1 hour at room temperature is performed. Four washes with the washing solution are performed, followed by three washes with PBS. Finally, 100 μl of the developing solution are added, followed by incubation for 10 minutes. Finally, 100 μl of the quenching solution are added, before reading at 450 nm.

For another experiment, the system named is MV4-11. In words: Cell viability assay (CellTiter-Blue), MV4-11. It is filed as cell-based. The conditions noted are these: Homo sapiens, read-out: EC50 MV4-11 μM (acute myeloid leukemia), MV4-11 cells, read-out: EC50 MV4-11 μM (myeloma). As to the method:
as §2, §3

T1 sequence (P11309 whole entry): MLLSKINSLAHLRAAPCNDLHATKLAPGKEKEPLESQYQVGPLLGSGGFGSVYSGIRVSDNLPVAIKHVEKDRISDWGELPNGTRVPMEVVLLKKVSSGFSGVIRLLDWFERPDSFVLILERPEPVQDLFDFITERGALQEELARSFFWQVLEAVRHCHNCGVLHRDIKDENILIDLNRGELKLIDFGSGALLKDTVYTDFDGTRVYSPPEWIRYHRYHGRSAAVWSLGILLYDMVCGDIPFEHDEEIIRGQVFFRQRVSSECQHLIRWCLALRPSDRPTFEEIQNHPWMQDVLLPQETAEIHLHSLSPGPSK

Turning to `NCCNC(=O)c1ccc(-c2c(F)cnc3[nH]c4cnc(-c5cccnc5)cc4c23)cc1` [Example 28, N-(2-aminoethyl)-4-[3-fluoro-6-(pyridin-3-yl)-9H-pyrrolo[2,3-b:5,4-c′]dipyridin-4-yl]benzamide], the IC50 on Pim-1 is less than 100 nM; at Pim-3, less than 100 nM; on CDK1 it was 100 to 1000 nM; against PLK1, 100 to 1000 nM; on Pim-2, less than 100 nM; in the experiment with phosphoBAD (DND-41), 1000 to 5000 nM. Moreover, the EC50 in the experiment with EOL-1 and in the experiment on MV4-11 was 100 to 1000 nM throughout.
For `CN(C)CCNC(=O)c1ccc(-c2c(F)cnc3[nH]c4cnc(-c5cnn(C)c5)cc4c23)cc1` [Example 37, N-[3-(dimethylamino)ethyl]-4-[3-fluoro-6-(1-methyl-1H-pyrazol-4-yl)-9H-pyrrolo[2,3-b:5,4-c′]dipyridin-4-yl]benzamide], the half-maximal inhibitory concentration (IC50) is less than 100 nM at Pim-1; less than 100 nM at Pim-3; 100 to 1000 nM against CDK1; 1000 to 5000 nM against PLK1; less than 100 nM on Pim-2; 1000 to 5000 nM in the experiment with phosphoBAD (DND-41).
For `CN(C)CC(C)(C)CNC(=O)c1ccc(-c2c(F)cnc3[nH]c4cnc(-c5cccnc5)cc4c23)cc1` [Example 52, N-[3-(dimethylamino)-2,2-dimethylpropyl]-4-[3-fluoro-6-(pyridin-3-yl)-9H-pyrrolo[2,3-b:5,4-c′]dipyridin-4-yl]benzamide], the IC50 on Pim-1 is less than 100 nM; at Pim-3, less than 100 nM; on CDK1, 1000 to 5000 nM; at PLK1 it was 100 to 1000 nM; on Pim-2, 100 to 1000 nM; with phosphoBAD (DND-41), 100 to 1000 nM. Moreover, the EC50 in the experiment with EOL-1 was less than 100 nM; in the experiment with MV4-11 it was 100 to 1000 nM.
For `CN(C)CCCN(C)C(=O)c1ccc(-c2c(F)cnc3[nH]c4cnc(-c5cccnc5)cc4c23)cc1` [Example 59, N-[3-(dimethylamino)propyl]-4-[3-fluoro-6-(pyridin-3-yl)-9H-pyrrolo[2,3-b:5,4-c′]dipyridin-4-yl]-N-methylbenzamide], the IC50 on Pim-1 is less than 100 nM; on Pim-3, less than 100 nM; on CDK1, 100 to 1000 nM; at PLK1 it was 1000 to 5000 nM; at Pim-2 it was 100 to 1000 nM; with phosphoBAD (DND-41) it was 1000 to 5000 nM. In addition, the EC50 in the experiment with EOL-1 and in the experiment on MV4-11 was 100 to 1000 nM each time.
As for `CN1CCC(CCNC(=O)c2ccc(-c3c(F)cnc4[nH]c5cnc(-c6cccnc6)cc5c34)cc2)CC1` [Example 61, 4-[3-fluoro-6-(pyridin-3-yl)-9H-pyrrolo[2,3-b:5,4-c′]dipyridin-4-yl]-N-[2-(1-methylpiperidin-4-yl)ethyl]benzamide], the IC50 at Pim-1 is less than 100 nM; on Pim-3, less than 100 nM; against CDK1, 1000 to 5000 nM; against PLK1 it was 1000 to 5000 nM; at Pim-2 it was 100 to 1000 nM; in the experiment with phosphoBAD (DND-41), 1000 to 5000 nM. Besides, the concentration for a half-maximal effect (EC50) with EOL-1 and in the experiment on MV4-11 was 100 to 1000 nM in each case.
`CC(CNC(=O)c1ccc(-c2c(F)cnc3[nH]c4cnc(-c5cccnc5)cc4c23)cc1)N1CCCC1` (centres unmarked) [Example 63, 4-[3-fluoro-6-(pyridin-3-yl)-9H-pyrrolo[2,3-b:5,4-c′]dipyridin-4-yl]-N-[2-(pyrrolidin-1-yl)propyl]benzamide]: the half-inhibitory concentration (IC50) on Pim-1 is less than 100 nM; at Pim-3, less than 100 nM; against CDK1, 1000 to 5000 nM; against PLK1, 100 to 1000 nM; on Pim-2, 100 to 1000 nM; in the experiment on phosphoBAD (DND-41) it was 100 to 1000 nM. Besides, the EC50 with EOL-1 and in the experiment on MV4-11 was 100 to 1000 nM in each case.
Regarding `CN(CC1CCCCN1C)C(=O)c1ccc(-c2c(F)cnc3[nH]c4cnc(-c5cccnc5)cc4c23)cc1` (centres unmarked) [Example 64, 4-[3-fiuoro-6-(pyridin-3-yl)-9H-pyrrolo[2,3-b:5,4-c′]dipyridin-4-yl]-N-methyl-N-[(1-methylpiperidin-2-yl)methyl]benzamide], the IC50 at Pim-1 is less than 100 nM; on Pim-3, less than 100 nM; on CDK1, 1000 to 5000 nM; against PLK1 it was 100 to 1000 nM; on Pim-2 it was 100 to 1000 nM; in the experiment on phosphoBAD (DND-41), 100 to 1000 nM. Also, the EC50 with EOL-1 and in the experiment with MV4-11 was 100 to 1000 nM each time.
Take `CN1CCN(NC(=O)c2ccc(-c3c(F)cnc4[nH]c5cnc(-c6cnn(C)c6Cl)cc5c34)cc2)CC1` [Example 106, 4-[6-(5-chloro-1-methyl-1H-pyrazol-4-yl)-3-fluoro-9H-pyrrolo[2,3-b:5,4-c′]dipyridin-4-yl]-N-(4-methylpiperazin-1-yl)benzamide]: the IC50 is less than 100 nM on Pim-1; less than 100 nM on Pim-3; 100 to 1000 nM at CDK1; 1000 to 5000 nM on PLK1; less than 100 nM at Pim-2. The concentration giving a half-maximal response (EC50) in the experiment with EOL-1 was less than 100 nM; in the experiment with MV4-11 it was 100 to 1000 nM.
On to `CN1CCC(NC(=O)c2ccc(-c3c(F)cnc4[nH]c5cnc(-c6cnn(C)c6Cl)cc5c34)cc2)CC1` [Example 107, 4-[6-(5-chloro-1-methyl-1H-pyrazol-4-yl)-3-fluoro-9H-pyrrolo[2,3-b:5,4-c′]dipyridin-4-yl]-N-(1-methylpiperidin-4-yl)benzamide], for which the IC50 at Pim-1 was less than 100 nM; at Pim-3, less than 100 nM; against CDK1, 1000 to 5000 nM; at PLK1, more than 5000 nM; at Pim-2, less than 100 nM. For the same compound, the EC50 with EOL-1 and in the experiment on MV4-11 was 100 to 1000 nM throughout.
Turning to `COCCOc1cnc2[nH]c3cnc(-c4cccnc4)cc3c2c1-c1ccc(C(=O)NCCN(C)C)cc1` [Example 120, N-[2-(dimethylamino)ethyl]-4-[3-(2-methoxyethoxy)-6-(pyridin-3-yl)-9H-pyrrolo[2,3-b:5,4-c′]dipyridin-4-yl]benzamide], the IC50 at Pim-1 was less than 100 nM; at Pim-3, less than 100 nM; at Pim-2, less than 100 nM; with phosphoBAD (DND-41) it was 100 to 1000 nM. The EC50 with EOL-1 and with MV4-11 was less than 100 nM throughout.
